Test results: publication PMC11255254, “ER-associated VAP27-1 and VAP27-3 proteins functionally link the lipid-binding ORP2A at the ER-chloroplast contact sites” (Nature Communications, 2024)

Molecular target: T1, ORP2A (His-ORP2A; ORP2A-His) (Arabidopsis thaliana, UniProt Q940Y1)
T1 construct: full-length, His6 tag kept (N-terminal in pET16b; also ORP2A-His), E. coli BL21
T1 sequence (Q940Y1 1-721): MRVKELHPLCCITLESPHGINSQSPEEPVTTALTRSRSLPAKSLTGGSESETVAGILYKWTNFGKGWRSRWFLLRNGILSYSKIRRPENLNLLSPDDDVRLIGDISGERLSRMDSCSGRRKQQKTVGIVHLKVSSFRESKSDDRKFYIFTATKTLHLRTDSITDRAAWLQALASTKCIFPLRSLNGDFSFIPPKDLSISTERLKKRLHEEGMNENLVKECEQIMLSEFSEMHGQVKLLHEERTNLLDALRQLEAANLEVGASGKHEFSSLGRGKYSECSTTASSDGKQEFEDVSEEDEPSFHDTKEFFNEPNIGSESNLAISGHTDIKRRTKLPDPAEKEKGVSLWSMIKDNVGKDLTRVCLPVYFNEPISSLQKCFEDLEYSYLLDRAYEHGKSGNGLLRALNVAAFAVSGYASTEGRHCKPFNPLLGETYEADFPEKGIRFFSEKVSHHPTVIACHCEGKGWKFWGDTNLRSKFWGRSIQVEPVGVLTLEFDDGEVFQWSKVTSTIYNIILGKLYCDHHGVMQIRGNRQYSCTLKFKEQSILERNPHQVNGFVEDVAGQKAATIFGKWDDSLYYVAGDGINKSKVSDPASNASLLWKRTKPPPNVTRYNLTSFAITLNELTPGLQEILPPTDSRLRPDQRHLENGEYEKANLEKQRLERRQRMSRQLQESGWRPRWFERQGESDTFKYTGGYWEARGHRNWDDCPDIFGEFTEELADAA
Assay: protein-lipid overlay (fat blot), anti-His immunoblot
Format: binding
Conditions: 15 μg sterol spotted on nitrocellulose; overnight incubation in purified protein

Structure (SMILES) | protein-lipid overlay (fat blot), anti-His immunoblot
CC(C)[C@H](C)CC[C@@H](C)[C@H]1CC[C@H]2[C@@H]3CC=C4C[C@@H](O)CC[C@]4(C)[C@H]3CC[C@]12C [campesterol] | recombinant ORP2A-His shows that the protein interacts with β-sitosterol, stigmasterol and campesterol
CC[C@H](/C=C/[C@@H](C)[C@H]1CC[C@H]2[C@@H]3CC=C4C[C@@H](O)CC[C@]4(C)[C@H]3CC[C@]12C)C(C)C [stigmasterol] | recombinant ORP2A-His shows that the protein interacts with β-sitosterol, stigmasterol and campesterol
CC[C@H](CC[C@@H](C)[C@H]1CC[C@H]2[C@@H]3CC=C4C[C@@H](O)CC[C@]4(C)[C@H]3CC[C@]12C)C(C)C [β-sitosterol] | recombinant ORP2A-His shows that the protein interacts with β-sitosterol, stigmasterol and campesterol
